Data as given in patent US20060269924A1, “Modulation of telomere-initiated cell signaling” (TRUSTEES OF BOSTON UNIVERSITY, priority 2003, published 2006).
{P} = phosphate

What was measured:
[1] = system: phospho-p53 serine 15, phospho-p95 serine 343; test: T-oligo response in fibroblasts with Mre11 siRNA knockdown, Western blot and densitometry; type: cell-based, human; details: fibroblasts with significantly reduced MRE11 levels (Mre11 siRNA), 48 hours
Method: Normal human neonatal fibroblasts were treated with either 10 pmoles Mre11 siRNA or 10 pmoles control (no homology found in expressed human sequences). Cultures dishes were approximately 60% confluent on the day of siRNA transfection. Transfections were carried out using Lipofectamine 2000 (Invitrogen, Carlsbad, Calif.) following the protocol supplied by the manufacturer. The transfection cocktail was applied to the cells for 5 hours and then replaced with fresh medium alone. The next day, the transfection protocol was repeated. The following day, duplicate cultures were treated with the T-oligo or with diluent alone as a negative control. Cells were then collected 48 hours later and the protein analyzed by Western blot using antibodies specific for phospho-p95 serine 343 (Cell Signaling Technology, Beverly, Mass.), Mre11 (GeneTex, San Antonio, Tex.), phosphor-p53 serine 15 (Cell Signaling Technology) and total p53 (Oncogene, San Diego, Calif.) (FIG. 9). Hela cell lysate was used as a positive control for Mre11. Normal fibroblasts exposed to 10 Gy IR or sham irradiated and collected after one hour served as positive controls for p53 and p95/Nbs1 phosphorylation. The autoradiographs were analyzed by densitometry and the values for the T-oligo samples are expressed relative to the values for the diluent-treated samples (FIG. 10 and FIG. 11).

[2] = system: p95 phosphorylated at serine 343; test: p95 serine 343 phosphorylation after tankyrase siRNA, western blotting and densitometry; type: cell-based, human; details: 24 hours
Method: Paired cultures of human fibroblasts were treated once with tankyrase siRNA, with a non-specific siRNA (control) or were mock transfected as a second control. […] After an additional 24 hours, cells were collected and processed for western blotting using an antibody specific for p95 phosphorylated at serine 343, indicating p95 modification by activated ATM kinase. The film was then subjected to densitometry and the diluent control for each group of cells was set at 1.0 in arbitrary units (FIG. 19). As expected, in cells with normal tankyrase levels the T-oligo treated cells had twice the amount of phosphorylated p95, while the control oligo-treated or diluent-treated cells had only a 30-40% increase.

Question: What does the source list for “pGTTAGGGTTAG (DNA, 5' {P}, backbone not given here; listed as Homo sapiens) [Oligonucleotide 11mer-1]”?
Answer: phospho-p53 response to T-oligo [1]: reduced; phospho-p95/Nbs1 response to T-oligo [1]: absent; amount of phosphorylated p95 relative to diluent control ([2]; human fibroblasts with normal tankyrase levels): twice; level of p95 phosphorylation (densitometry, diluent control set at 1.0) ([2]; tankyrase knockdown group (tankyrase siRNA)): 1.1 arbitrary units
